Measured values published in US20050053680A1, “Pediculicidal compound” (priority 2002, published 2005).
Where two headings read alike, the source gives them in different places.

Tests used:
[1] = tested on: Human lice, Pediculus humanus; details: in vivo
[2] = tested on: Louse eggs; details: for inhibition of embryo development before eyespot stage (in words): Table 10, Undeveloped; for Number of eggs Half-hatched / Number of eggs Undeveloped: Laurex CS 4.00%, GMS N/SE 2.00%; for Undeveloped % (in brackets, Abbott's correction): corrected; for Undeveloped %: uncorrected; for activity against louse eggs (in words): after correction for hatching failure in the Control Group
[3] = Table 10, H2O vehicle, Laurex CS 4.00% (163 eggs), GMS N/SE 2.00% (176 eggs)
[4] = Table 10, IPA/water vehicle, Laurex CS 4.00% (102 eggs), GMS N/SE 2.00% (145 eggs)
[5] = Table 10, IPA/water vehicle, IPA/H2O mix 40.5

Urtica Dioica (Nettle) extract [Nettle Extract]
Mortality % (Killed) [1]: 24 (14) % | Mortality % Total [1]: 24 (14) %

CCCCCCCCCCCCCCCCCCO [Laurex CS, Cetearyl alcohol]
inhibition of embryo development before eyespot stage (in words) [2]: activity to inhibit the development of the embryo | Number of eggs Hatched [2, 3]: 117 | Number of eggs Half-hatched ([2]; Table 10, H2O vehicle): 1 | Number of eggs Undeveloped ([2]; Table 10, H2O vehicle): 34 | Undeveloped % (in brackets, Abbott's correction) ([2]; Table 10, H2O vehicle): 0% | Undeveloped % ([2]; Table 10, H2O vehicle): 20.9% | Number of eggs Hatched [2, 4]: 19 | Number of eggs Half-hatched ([2]; Table 10, IPA/water vehicle): 1 | Number of eggs Undeveloped ([2]; Table 10, IPA/water vehicle): 70 | Undeveloped % (in brackets, Abbott's correction) ([2]; Table 10, IPA/water vehicle): 47.2% | Undeveloped % [2, 5]: 68.6% | kill of louse eggs ([2]; after correction for Control Group, Table 10): > 50% | activity against louse eggs (in words) ([2]; Table 10): activity could be detected | pediculicidal activity (in words) [1]: killed all lice and prevented them from laying any eggs | pediculicidal activity at different time exposures (in words) [1]: some activity can be demonstrated from 30 minutes application

CCCCCCCCCCCCCCCCCC(=O)OCC(O)CO (stereo not drawn) [GMS N/SE, Glyceryl stearate]
inhibition of embryo development before eyespot stage (in words) [2]: activity to inhibit the development of the embryo | Number of eggs Hatched [2, 3]: 135 | Number of eggs Half-hatched ([2]; Table 10, H2O vehicle): 7 | Number of eggs Undeveloped ([2]; Table 10, H2O vehicle): 27 | Undeveloped % (in brackets, Abbott's correction) ([2]; Table 10, H2O vehicle): 0% | Undeveloped % ([2]; Table 10, H2O vehicle): 15.3% | Number of eggs Hatched [2, 4]: 45 | Number of eggs Half-hatched ([2]; Table 10, IPA/water vehicle): 1 | Number of eggs Undeveloped ([2]; Table 10, IPA/water vehicle): 93 | Undeveloped % (in brackets, Abbott's correction) ([2]; Table 10, IPA/water vehicle): 39.7% | Undeveloped % [2, 5]: 64.1% | activity against louse eggs (in words) ([2]; Table 10): activity could be detected | Number of lice Moribund [1]: 0 | pediculicidal activity (in words) [1]: showed any activity

Thymus Vulgaris (Thyme) extract [Thyme Extract]
Mortality % (Killed) [1]: 21 (5) % | Mortality % Total [1]: 21 (5) %

CCCCCCCCCCCCCCCC[N+](C)(C)C.[Cl-] [Dehyquart ACA, Cetrimonium chloride]
Mortality % (Killed) [1]: 20 (10) % | Mortality % Total [1]: 20 (10) % | Number of eggs [1]: 34 | Number of lice Killed [1]: 2 | Number of lice Moribund [1]: 2

Methylparaben & Propylparaben & Ethylparaben [Nipasept]
Mortality % (Killed) [1]: 20 (15) % | Mortality % Total [1]: 20 (15) %

Liquid Paraffin [reference compound]
Mortality % (Killed) [1]: 100 (100) % | Mortality % Total [1]: 100 (100) %
